Peptide text beside a SMILES is read from it.
Tests used:
Assay in all cases: FLIPR calcium mobilization (Fluo-4), agonist activation
Type in all cases: cell-based
Conditions in all cases: HEK 293T-Gα16gust44 cells, pH 7.4
[1] = molecular target: T1, zebrafish receptor Tas2r4 (Danio rerio, UniProt Q58WW8)
T1 construct: gene tas2r203; full length, N-terminal sst3 export tag, C-terminal hsv tag; HEK 293T-Galpha16gust44
T1 sequence (Q58WW8 1-305): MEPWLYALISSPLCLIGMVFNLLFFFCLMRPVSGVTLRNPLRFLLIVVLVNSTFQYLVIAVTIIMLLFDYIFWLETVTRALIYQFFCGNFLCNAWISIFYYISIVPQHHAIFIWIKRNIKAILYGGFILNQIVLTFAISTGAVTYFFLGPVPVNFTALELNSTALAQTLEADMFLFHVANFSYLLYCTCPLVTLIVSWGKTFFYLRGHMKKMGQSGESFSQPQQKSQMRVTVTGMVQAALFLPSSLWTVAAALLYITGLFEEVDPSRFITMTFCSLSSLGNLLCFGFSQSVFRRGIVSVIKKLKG

Tas2r29 (xtTas2r29) = molecular target: T2, Tas2r29 (xtTas2r29) (Xenopus tropicalis, UniProt Q2AB56)
T2 construct: full length, N-terminal sst3 export tag, C-terminal hsv tag; HEK 293T-Galpha16gust44
T2 sequence (Q2AB56 1-290): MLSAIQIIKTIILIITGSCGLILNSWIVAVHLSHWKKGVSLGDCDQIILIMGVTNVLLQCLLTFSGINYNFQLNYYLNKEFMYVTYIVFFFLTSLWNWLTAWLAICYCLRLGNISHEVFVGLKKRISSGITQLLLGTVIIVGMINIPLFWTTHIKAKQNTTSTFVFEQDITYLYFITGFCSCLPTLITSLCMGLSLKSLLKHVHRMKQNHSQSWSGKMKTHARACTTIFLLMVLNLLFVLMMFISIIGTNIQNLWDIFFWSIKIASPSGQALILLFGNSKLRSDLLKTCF

[2] = molecular target: T3, chicken Tas2r2 (ggTas2r2) (Gallus gallus, UniProt A0A1D5PXM6)
T3 construct: gene LOC101747503; full length, N-terminal sst3 export tag, C-terminal hsv tag; HEK 293T-Galpha16gust44
T3 sequence (A0A1D5PXM6 1-311): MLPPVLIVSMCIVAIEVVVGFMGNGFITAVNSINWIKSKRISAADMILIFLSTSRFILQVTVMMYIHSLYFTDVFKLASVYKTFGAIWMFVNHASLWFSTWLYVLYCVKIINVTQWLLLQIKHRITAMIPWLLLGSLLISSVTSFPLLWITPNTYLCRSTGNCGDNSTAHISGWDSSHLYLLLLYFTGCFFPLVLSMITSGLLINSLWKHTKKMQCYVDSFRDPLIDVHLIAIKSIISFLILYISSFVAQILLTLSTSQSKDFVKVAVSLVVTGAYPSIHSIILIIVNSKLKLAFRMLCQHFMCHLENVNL

Question: How did the dF/F [1] turn out when `N[C@@H](Cc1c[nH]c2ccccc12)C(=O)O` [L-Trp] was run?
Answer: Its dF/F is “Subsequent testing with L- and D-Trp revealed responsiveness to these amino acids”.

Question: `N[C@@H](Cc1c[nH]c2ccccc12)C(=O)N[C@@H](Cc1c[nH]c2ccccc12)C(=O)N[C@@H](Cc1c[nH]c2ccccc12)C(=O)O` [L-Trp-Trp-Trp] (H-Trp-Trp-Trp-OH) was tested. Which dF/F (Tas2r29 (xtTas2r29)) did it give?
Answer: Its dF/F is “Tas2r29 exhibited only weak, yet significant, responses to L-Trp-Trp-Trp as well as to CA and GCA”.

Question: How did the dF/F [2] turn out when `C[C@H](CCC(=O)O)[C@H]1CC[C@H]2[C@@H]3[C@H](O)C[C@@H]4C[C@H](O)CC[C@]4(C)[C@H]3C[C@H](O)[C@]12C` [cholic acid] was run?
Answer: The dF/F was “chicken Tas2r2 were only significant for the highest concentrations of the two bile acids”.
